Biological target: dipeptidyl peptidase IV (Homo sapiens, UniProt P27487)
Experiment: biochemical
Details: values marked with "*" are ID50 values; read-out: IC50DPIV, values marked with "*" = ID50

Chain of dipeptidyl peptidase IV (P27487 whole entry, species assumed): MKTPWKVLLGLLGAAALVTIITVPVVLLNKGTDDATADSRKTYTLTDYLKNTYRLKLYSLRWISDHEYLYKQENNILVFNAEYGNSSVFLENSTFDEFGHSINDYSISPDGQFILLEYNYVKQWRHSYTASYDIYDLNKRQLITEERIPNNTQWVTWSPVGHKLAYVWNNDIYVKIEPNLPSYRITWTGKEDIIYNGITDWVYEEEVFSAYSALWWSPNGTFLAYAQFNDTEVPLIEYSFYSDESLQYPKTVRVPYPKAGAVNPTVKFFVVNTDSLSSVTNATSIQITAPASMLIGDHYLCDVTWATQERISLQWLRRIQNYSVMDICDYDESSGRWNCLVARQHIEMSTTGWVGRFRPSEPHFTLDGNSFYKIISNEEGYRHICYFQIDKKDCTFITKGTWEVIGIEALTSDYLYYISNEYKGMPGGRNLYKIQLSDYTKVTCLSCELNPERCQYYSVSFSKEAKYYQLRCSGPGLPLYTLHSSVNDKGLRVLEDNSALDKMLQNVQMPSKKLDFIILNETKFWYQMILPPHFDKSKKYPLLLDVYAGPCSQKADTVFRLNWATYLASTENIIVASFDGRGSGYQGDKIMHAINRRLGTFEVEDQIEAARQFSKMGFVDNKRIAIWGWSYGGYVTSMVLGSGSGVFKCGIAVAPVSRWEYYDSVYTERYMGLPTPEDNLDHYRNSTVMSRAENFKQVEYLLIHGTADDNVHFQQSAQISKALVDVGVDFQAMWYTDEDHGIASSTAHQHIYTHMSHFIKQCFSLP

How did the IC50 turn out when Cc1ccccc1NC(=O)c1cc2c3c(c1)C1C=CCC1CN3CC1CC=CC21 (stereo not drawn) [D3.110] was run?
The IC50 was 279 µM.

CSc1ccc(/C=N/NC(=O)c2cccs2)cc1 [D10.141] was tested. Which IC50 did it give?
The IC50 was 498 µM.

Which IC50 does the source give for Cc1ccccc1NC(=O)C(=O)N/N=C/c1cccc(Cl)c1 [D10.144] here?
Its IC50 is 775 µM.

How did the IC50 turn out when Cc1ccc(OCC(=O)N/N=C/c2ccccc2OC(=O)c2ccc([N+](=O)[O-])cc2)cc1 [D10.131] was run?
Its IC50 is 257 µM.

For O=C(N/N=C/c1cc(Br)ccc1OC(=O)c1ccc([N+](=O)[O-])cc1)/C(=C\c1ccc2c(c1)OCO2)NC(=O)c1ccccc1 [D10.133], which IC50 is on record?
The IC50 was 272 µM.

CCCN(CCC)c1ccc(/C=N/NC(=O)COc2ccc(C)cc2[N+](=O)[O-])cc1 [D10.124] was tested. Which IC50 did it give?
The IC50 was 225 µM.

With O=C(NNC(=O)c1ccc([N+](=O)[O-])cc1)c1ccc(N2C(=O)c3ccc(C(=O)NNC(=O)c4ccc([N+](=O)[O-])cc4)cc3C2=O)cc1 [D10.137] as the compound, how does the IC50 read?
The IC50 was 402 µM.

Same assay, conditions: values without "*" = IC-50; read-out: IC50DPIV

Which IC50 does the source give for CCOC(=O)c1c(N2C(=O)C3ON(c4ccccc4)C(c4ccc([N+](=O)[O-])cc4)C3C2=O)sc2c1CCCC2 (stereo not drawn) [D3.069] here?
The IC50 was 54.1 µM.

With COc1cc(/C=N/NC(=O)CNC(=O)c2cccc(F)c2)ccc1OC(=O)c1ccccc1Cl [D10.093] as the compound, how does the IC50 read?
Its IC50 is 63.5 µM.

How did the IC50 turn out when COc1cc(/C=N/NC(=O)c2ccccc2OC(C)C)ccc1O [D10.087] was run?
Its IC50 is 58.7 µM.

How did the IC50 turn out when N#CC1=C(N)C(C#N)(C#N)C(c2ccccc2)C2CNCC=C12 (stereo not drawn) [D4.007] was run?
Its IC50 is 6.9 µM.

O=C(N/N=C/c1ccc(OC(=O)c2ccco2)c([N+](=O)[O-])c1)/C(=C\c1cccs1)NC(=O)c1ccccc1 [D10.028] was tested. Which IC50 did it give?
The IC50 was 16.7 µM.

O=C(N/N=C/c1cc(Br)ccc1OC(=O)c1ccco1)/C(=C\c1cccs1)NC(=O)c1ccccc1 [D10.042] was tested. Which IC50 did it give?
The IC50 was 24.1 µM.

With CCOC(=O)C1=C2SCC(=O)N2C(N)=C(C#N)C1 [D3.009] as the compound, how does the IC50 read?
Its IC50 is 14.1 µM.

How did the IC50 turn out when CCOC(=O)CC(N)c1cccs1 (stereo not drawn) [D6.018] was run?
The IC50 was 15.2 µM.

Which IC50 does the source give for COc1cc2c(cc1OC)CC1(CCCC1)N=C2 [D3.077] here?
The IC50 was 59.1 µM.

For O=C1C=C(c2cccc([N+](=O)[O-])c2)C(=O)N1c1ccc(Cl)cc1 [D4.016], which IC50 is on record?
Its IC50 is 12.3 µM.

With CC(=O)Oc1ccc2oc(=O)c3c(c2c1)CCCN3C(C)=O [D12.029] as the compound, how does the IC50 read?
The IC50 was 59.4 µM.

For Cc1cccc(C(=O)Oc2c(Br)cc(Br)cc2/C=N/NC(=O)CNC(=O)c2ccc(Cl)cc2)c1 [D10.021], which IC50 is on record?
The IC50 was 13.2 µM.

For CN(C)c1ccc(/C=N\NC(=O)c2cc(N)ccc2O)cc1 [D10.008], which IC50 is on record?
The IC50 was 7.6 µM.

How did the IC50 turn out when O=C(Nc1cccc(/N=C/c2cc(I)cc(I)c2O)c1)c1ccco1 [D6.010] was run?
Its IC50 is 9.2 µM.

For O=C(NNC1=C(Cl)C(=O)C(Cl)(Cl)C1=O)c1ccccc1 [D14.004], which IC50 is on record?
Its IC50 is 26.2 µM.

How did the IC50 turn out when Nc1nonc1-n1nnc(C(=O)NN=C2c3ccccc3-c3ccccc32)c1-c1ccccc1 [D3.011] was run?
The IC50 was 10.1 µM.

Which IC50 does the source give for O=C1NCCCCC1Nc1ccc(N2C(=O)CCCC2=O)cc1[N+](=O)[O-] (stereo not drawn) [D5.026] here?
The IC50 was 34.1 µM.

O=C1CCCC(=O)N1c1ccc(N2CCN(Cc3ccccc3)CC2)c([N+](=O)[O-])c1 [D4.035] was tested. Which IC50 did it give?
Its IC50 is 24.5 µM.

Which IC50 does the source give for O=C1CCCC(=O)N1c1ccc(NCCc2ccc(O)cc2)c([N+](=O)[O-])c1 [D4.064] here?
Its IC50 is 54.9 µM.

Which IC50 does the source give for CN1CCN(c2nc3c(c(=O)n(C)c(=O)n3C)n2Cc2cccc(F)c2)CC1 [D3.054] here?
The IC50 was 41.2 µM.

O=C(N/N=C\c1cccc(OC(=O)c2ccc([N+](=O)[O-])cc2)c1)/C(=C/c1ccc2c(c1)OCO2)NC(=O)c1ccccc1 [D10.043] was tested. Which IC50 did it give?
The IC50 was 24.2 µM.

Cc1nnc(SCC(=O)OCN2C(=O)c3ccccc3C2=O)[nH]1 [D3.033] was tested. Which IC50 did it give?
The IC50 was 27.5 µM.

How did the IC50 turn out when Cc1csc(/C(=N\OC(=O)c2ccco2)C(N)=O)n1 [D11.009] was run?
The IC50 was 32.8 µM.

COC1CC2=C(CC1OC)CC(C)(C)NC2 (stereo not drawn) [D4.039] was tested. Which IC50 did it give?
The IC50 was 28.8 µM.

For Cc1ccccc1NC(=O)CSC1=NCCN1 [D6.057], which IC50 is on record?
The IC50 was 38.1 µM.

How did the IC50 turn out when CC1=C(C#N)C(=O)N=C(O)/C1=C\c1ccc(-c2ccc(Cl)cc2Cl)o1 [D6.101] was run?
Its IC50 is 95.8 µM.

How did the IC50 turn out when COc1cc(/C=N/NC(=O)CNC(=O)c2ccc(Cl)cc2)ccc1OC(=O)c1cccc(F)c1 [D10.066] was run?
The IC50 was 42 µM.

Nc1nonc1-n1nnc(C(=O)NN=C2c3ccccc3-c3ccccc32)c1-c1ccccc1 [D4.013] was tested. Which IC50 did it give?
The IC50 was 10.1 µM.

With O=C1NC23NC(=O)NC2(N1)c1ccccc1-c1ccccc13 (stereo not drawn) [D3.057] as the compound, how does the IC50 read?
The IC50 was 43.1 µM.

From patent publication US20070037785A1, “Novel dipeptidyl peptidase IV inhibitors used for functionally influencing different cells and treating immunological, infammatory, neuronal, and other diseases” (priority 2003, published 2007)
